Publication PMC10125213 (Journal of Molecular Biology, 2023)
Where two headings read alike, the source gives them in different places.

Tests used:
WT S protein = WT S protein (Severe acute respiratory syndrome coronavirus 2, UniProt P0DTC2); assay: biochemical; assay type: binding
WT RBD = WT RBD (Severe acute respiratory syndrome coronavirus 2, UniProt P0DTC2); assay type: binding

`N[C@@H](CCC(=O)N[C@@H](CS)C(=O)NCC(=O)O)C(=O)O` [GSH, reduced glutathione] was tested, and the “effects on WT S protein” value (WT S protein) was “did not exhibit any effects”.
With `CC(=O)N[C@@H](CS)C(=O)O` [NAC, N-acetylcysteine] the “effects on WT S protein” value (WT S protein; 37 °C 60 min) was “did not exhibit any effects”.
In the case of `O=C(O)CCP(CCC(=O)O)CCC(=O)O` [TCEP, tris-(2-carboxyethyl)phosphine], the “effect on WT RBD” value (WT RBD) is reported as “marginal effect”.
`NCCCNCCS` [WR1065] gave an IC50 (WT S protein; IC50, 37 °C 60 min) of 1 to 10 mM.
